Results reported in patent US7534809B2, “Phospho-indoles as HIV inhibitors” (priority 2004, dated 2009).

Assays:
[1] = target: HIV reverse transcriptase Y181C (Human immunodeficiency virus type 1 group M subtype B, UniProt P03366, Y780C); assay: Enzyme assay, reverse transcriptase Y181C; assay type: biochemical, HIV-1
Excerpt: (§1) As used herein, “reverse transcriptase” or “RT” refers to an enzyme having a non-nucleoside inhibitory binding site similar to that of HIV-1 RT, and to which ligands, which bind the composite binding pocket of the compounds of the present invention, also will bind. One measure of RT activity is viral replication. A measure of HIV-1 viral replication is the automated assay that utilizes MTT, as described earlier in this specification. Another measure is the p24 core antigen enzyme immunoassay, such as, for example, the assay commercially available from Coulter Corporation/Immunotech, Inc.® (Westbrook, Mich.). Another means for measuring RT activity is by assaying recombinant HIV-1 reverse transcriptase activity, such as, for example, by using the Quan-T-RT™ assay system commercially available from Amersham® (Arlington Heights, Ill.) and as described by Bosworth et al., Nature, 1989, 341:167-168.
(§2) The 3-phosphoindoles can be assessed for their ability to inhibit reverse transcriptase activity in vitro according to standard screening methods.

HIV mutant strain Y181C = assay: Cell-based assay using BH-10 cells, Y181C mutant; details: Human immunodeficiency virus 1, read-out: EC50 Y181C, BH-10 cells, Y181C mutant
Experimental: (§3) In a typical embodiment, the NNRTIs display an EC50 in a mutant HIV strain of less than approximately 5, 2.5, 1 or 0.1 μM concentration. The degree of cross-resistance against a drug resistant strain of HIV is measured by assessing the EC50 of the desired oxo-pyrimidine compound in the target mutated, i.e., drug resistant, virus.
(§4) The degree of cross-resistance against a drug resistant strain of HIV can easily be measured by assessing the EC50 of the desired indole in the target mutated i.e., drug resistant, virus.

[2] = target: HIV reverse transcriptase WT (Human immunodeficiency virus type 1 group M subtype B, UniProt P03366); assay: Enzyme assay, reverse transcriptase WT; assay type: biochemical, HIV-1
Excerpt: as §1, §2

[3] = target: HIV reverse transcriptase K103N (Human immunodeficiency virus type 1 group M subtype B, UniProt P03366, K702N); assay: Enzyme assay, reverse transcriptase K103N; assay type: biochemical, HIV-1
Excerpt: as §1, §2

[4] = system: HIV mutant strain K103N/Y181C; assay: Cell-based assay using BH-10 cells, K103N/Y181C mutant; details: Human immunodeficiency virus 1, read-out: EC50 K103N/Y181C, BH-10 cells, K103N/Y181C mutant
Experimental: as §3, §4

HIV BH-10 WT = assay: Cell-based assay using BH-10 cells, wild type; details: Human immunodeficiency virus 1, read-out: EC50 WT///B, BH-10 cells, wild type
[5] = target: HIV reverse transcriptase K103N/Y181C (Human immunodeficiency virus type 1 group M subtype B, UniProt P03366, K702N/Y780C); assay: Enzyme assay, reverse transcriptase K103N/Y181C; assay type: biochemical, HIV-1
Excerpt: as §1, §2

Row | Compound | IC50 [1] | EC50 (HIV mutant strain Y181C) | IC50 [2] | IC50 [3] | EC50 [4] | EC50 (HIV BH-10 WT) | IC50 [5]
1 | CCOP(=O)(c1ccc(F)cc1)c1c(C(N)=O)[nH]c2ccc(Cl)cc12 (stereo not shown) [Compound 6c] | > 5000 nM | > 1250 nM | 3620 nM | > 5000 nM | > 1250 nM | 34.5 nM | > 5000 nM
2 | COP(=O)(c1ccccc1)c1c(C(N)=O)[nH]c2ccc(Cl)cc12 (stereo not shown) [Compound 7ah] | 349 nM | 4.9 nM | 309 nM | 389 nM | 3.4 nM | 0.4 nM | 6750 nM
3 | COP(=O)(c1ccccc1)c1c(C(=O)NCc2ccncc2)[nH]c2ccc(Cl)cc12 (stereo not shown) [Compound 18ar] | 489 nM | 5.6 nM | 156 nM | 930 nM | 3.9 nM | 1 nM | 1660 nM
4 | CN(C)P(=O)(c1ccccc1)c1c(C(N)=O)[nH]c2ccc(Cl)cc12 (stereo not shown) [Compound 31a] | > 5000 nM | 467 nM | 1400 nM | > 5000 nM | > 1250 nM | 13.9 nM | > 5000 nM
5 | CCOP(=O)(c1ccccc1F)c1c(C(N)=O)[nH]c2ccc(Cl)cc12 (stereo not shown) [Compound 6ad] | 4350 nM | 58.3 nM | 433 nM | 3290 nM | 17 nM | 0.9 nM | > 5000 nM
6 | CCOP(=O)(c1cc(F)cc(F)c1)c1c(C(N)=O)[nH]c2ccc(Cl)cc12 (stereo not shown) [Compound 6ac] | 3500 nM | 986 nM | 726 nM | 12700 nM | > 1250 nM | 3.7 nM | > 5000 nM
7 | NC(=O)c1[nH]c2ccc(Cl)cc2c1P(=O)(c1ccccc1)c1ccccc1 [Compound 27a] | > 5000 nM | > 1250 nM | > 5000 nM | > 5000 nM | > 1250 nM | > 1250 nM | > 5000 nM
8 | COP(=O)(c1ccccc1)c1c(C(N)=O)[nH]c2ccccc12 (stereo not shown) [Compound 7ai] | 5610 nM | 1110 nM | 393 nM | 6590 nM | 706 nM | 1 nM | > 5000 nM
9 | NC(=O)c1[nH]c2ccc(Cl)cc2c1P(=O)(O)c1ccccc1 [Compound 60a] | > 5000 nM | > 1250 nM | > 5000 nM | > 5000 nM | > 1250 nM | > 1250 nM | > 5000 nM
10 | CCOP(=O)(c1cc(C)cc(C)c1)c1c(C(=O)NCc2ccncc2)[nH]c2ccc(Cl)cc12 (stereo not shown) [Compound 9a] | 4490 nM | 57.7 nM | 3410 nM | 3360 nM | 8 nM | 11 nM | > 5000 nM
11 | CCOP(=O)(c1cc(C)cc(C)c1)c1c(C(N)=O)[nH]c2ccc(Cl)cc12 (stereo not shown) [Compound 6b] | 4310 nM | 28 nM | 1640 nM | 2610 nM | 51.7 nM | 3 nM | > 5000 nM
12 | CP(=O)(c1ccccc1)c1c(C(N)=O)[nH]c2ccc(Cl)cc12 (stereo not shown) [Compound 29a] | 2520 nM | 266 nM | 233 nM | > 5000 nM | 1380 nM | 0.8 nM | > 5000 nM
13 | COP(=O)(c1ccc(F)cc1)c1c(C(N)=O)[nH]c2ccc(Cl)cc12 (stereo not shown) [Compound 7ak] | – | 34.5 nM | – | – | 468 nM | 5.5 nM | –
14 | COP(=O)(c1cc(C)cc(C#N)c1)c1c(C(=O)NCc2cncn2C)[nH]c2ccc(Cl)cc12 (stereo not shown) [Compound 18aag] | – | 18.8 nM | – | – | 2.9 nM | 3.1 nM | –
15 | COP(=O)(c1cccc(CF)c1)c1c(C(=O)NCc2ccncc2)[nH]c2ccc(Cl)cc12 (stereo not shown) [Compound 18c] | – | 2.9 nM | – | – | 4.7 nM | 2 nM | –
16 | CCOP(=O)(c1cccc(C(C)C)c1)c1c(C(N)=O)[nH]c2ccc(Cl)cc12 (stereo not shown) [Compound 6i] | – | 9.1 nM | – | – | 3.5 nM | 1.2 nM | –
17 | CCOP(=O)(c1ccccc1CC)c1c(C(N)=O)[nH]c2ccc(Cl)cc12 (stereo not shown) [Compound 6ah] | – | 211 nM | – | – | 307 nM | 16.2 nM | –
18 | COP(=O)(c1cccc(C#N)c1)c1c(C(N)=O)[nH]c2ccc(Cl)cc12 (stereo not shown) [Compound 7f] | – | 10.5 nM | – | – | 15.3 nM | 0.9 nM | –
19 | CCOP(=O)(c1ccccc1)c1c(C(N)=O)[nH]c2ccc(Cl)cc12 (stereo not shown) [Compound 6a] | 1970 nM | 13.7 nM | 722 nM | 1630 nM | 16.4 nM | 1.2 nM | > 5000 nM
